Measured values from US20240132431A1, “METHOD FOR ALKYLATING ACIDIC FUNCTIONAL GROUP” (Chugai Seiyaku Kabushiki Kaisha, priority 2021, published 2024).

Molecular target: T1, Bcl-2 protein (Recombinant Human Bcl-2 Protein) (Homo sapiens, UniProt P10415)
T1 construct: purchased Novus NBP2-34889
Test: Binding evaluation of mixture library compounds to Bcl-2 using AS-MS (affinity selection mass spectrometry)
Details: for ASMS ratio (%) n = 1 / ASMS ratio (%) n = 2: ASMS Ratio(%)=(A−C)/B×100; for ASMS ratio (%) n = 1: replicate n = 1; for ASMS ratio (%) n = 2: replicate n = 2
Outline: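 Readout is ASMS Ratio (%), (A−C)/B×100, from reversed-phase LC/MS of SEC-passed extracts, with protein-free unfiltered standard (B) and protein-free SEC blank (C). Recombinant human Bcl-2 at 20 μM final met ~1200 pooled compounds at […] each for 1 h, 23° C., dark, in Tris-HCl pH 7.4 buffer.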

[1] = AS-MS on the mixture of 1200 library compounds
[2] = AS-MS, mixture of 1200 compounds, Bcl-2

T1 sequence (P10415 whole entry): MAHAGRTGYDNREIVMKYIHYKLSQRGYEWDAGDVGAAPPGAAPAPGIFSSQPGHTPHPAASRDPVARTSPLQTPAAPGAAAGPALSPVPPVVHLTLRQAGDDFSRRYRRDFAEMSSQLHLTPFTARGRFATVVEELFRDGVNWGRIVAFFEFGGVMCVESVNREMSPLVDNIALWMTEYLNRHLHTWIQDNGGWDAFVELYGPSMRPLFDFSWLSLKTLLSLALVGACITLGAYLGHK

CCOc1cncc(-c2cc(CN3CCN(c4ccc(C(=O)N(CC)CC)cc4)CC3)cc(OC(C)C)c2)c1 [B4J058-01, 4-[4-[[3-(5-Ethoxypyridin-3-yl)-5-propan-2-yloxyphenyl]methyl]piperazin-1-yl]-N,N-diethylbenzamide]
ASMS ratio (%) n = 1 [1]: 2.2% | ASMS ratio (%) n = 2 [1]: 0.5%

CCOc1cccc(-c2cc(CN3CCN(c4ccc(C(=O)NCC56CC7CC(CC(C7)C5)C6)nn4)CC3)cc(OCC)c2)c1 [B1A081-01, N-(1-Adamantylmethyl)-6-[4-[[3-ethoxy-5-(3-ethoxyphenyl)phenyl]methyl]piperazin-1-yl]pyridazine-3-carboxamide]
ASMS ratio (%) n = 1 [2]: −10.9% | ASMS ratio (%) n = 2 [2]: −5.5%

CCOc1cccc(-c2cc(C(=O)N3CCN(c4ccc(C(=O)Nc5ccc(OC)cc5)nn4)CC3)cc(C(C)(C)C)c2)c1 [B1O015-01, 6-[4-[3-tert-Butyl-5-(3-ethoxyphenyl)benzoyl]piperazin-1-yl]-N-(4-methoxyphenyl)pyridazine-3-carboxamide]
ASMS ratio (%) n = 1 [1]: 6.0% | ASMS ratio (%) n = 2 [1]: −2.7%

CCOc1cccc(C#Cc2ccccc2CN2CCN(c3ccc(C(=O)NS(=O)(=O)C(C)(C)C)cc3)CC2)c1 [B2L069-01, N-tert-Butylsulfonyl-4-[4-[[2-[2-(3-ethoxyphenyl)ethynyl]phenyl]methyl]piperazin-1-yl]benzamide]
ASMS ratio (%) (n = 1): 0.0% | ASMS ratio (%) (n = 2): 0.0%

CCOc1cccc(-c2csc(CN3CCN(c4ccc(C(=O)NCC56CC7CC(CC(C7)C5)C6)nn4)CC3)c2)c1 [B1A093-01, N-(1-Adamantylmethyl)-6-[4-[[4-(3-ethoxyphenyl)thiophen-2-yl]methyl]piperazin-1-yl]pyridazine-3-carboxamide]
ASMS ratio (%) n = 1 [2]: −5.3% | ASMS ratio (%) n = 2 [2]: 0.0%

CCOc1cncc(-c2cc(CN3CCN(c4ccc(C(=O)NS(=O)(=O)C(C)(C)C)nn4)CC3)cc(OCC)c2)c1 [B2L082-01, N-tert-Butylsulfonyl-6-[4-[[3-ethoxy-5-(5-ethoxypyridin-3-yl)phenyl]methyl]piperazin-1-yl]pyridazine-3-carboxamide]
ASMS ratio (%) (n = 1): 2.6% | ASMS ratio (%) (n = 2): −1.2%

CCOc1cccc(C#Cc2ccccc2CN2CCN(c3ccc(C(=O)NS(=O)(=O)CC45CC6CC(CC(C6)C4)C5)nn3)CC2)c1 [B2A095-01, N-(1-Adamantylmethylsulfonyl)-6-[4-[[2-[2-(3-ethoxyphenyl)ethynyl]phenyl]methyl]piperazin-1-yl]pyridazine-3-carboxamide]
ASMS ratio (%) n = 1 (AS-MS, mixture library, Bcl-2): 1.6% | ASMS ratio (%) n = 2 (AS-MS, mixture library, Bcl-2): 13.8%

CCOc1cncc(-c2csc(CN3CCN(c4ccc(C(=O)NS(=O)(=O)C(C)(C)C)nn4)CC3)c2)c1 [B2L094-01, N-tert-Butylsulfonyl-6-[4-[[4-(5-ethoxypyridin-3-yl)thiophen-2-yl]methyl]piperazin-1-yl]pyridazine-3-carboxamide]
ASMS ratio (%) (n = 1): 0.2% | ASMS ratio (%) (n = 2): 1.8%

CCOc1cncc(-c2cc(CN3CCN(c4ccc(C(=O)NCC56CC7CC(CC(C7)C5)C6)nn4)CC3)cc(OCC)c2)c1 [B1A082-01, N-(1-Adamantylmethyl)-6-[4-[[3-ethoxy-5-(5-ethoxypyridin-3-yl)phenyl]methyl]piperazin-1-yl]pyridazine-3-carboxamide]
ASMS ratio (%) n = 1 [2]: 3.0% | ASMS ratio (%) n = 2 [2]: 0.2%

CCOc1cccc(-c2ccc(CN3CCN(c4ccc(C(=O)Nc5ccc(OC)cc5)nn4)CC3)c(OC)c2)c1 [B1O079-01, 6-[4-[[4-(3-Ethoxyphenyl)-2-methoxyphenyl]methyl]piperazin-1-yl]-N-(4-methoxyphenyl)pyridazine-3-carboxamide]
ASMS ratio (%) n = 1 [1]: 4.5% | ASMS ratio (%) n = 2 [1]: 1.3%

4-[4-[[3-(5-Ethoxypyridin-3-yl)-5-(trifluoromethyl)phenyl]methyl]piperazin-1-yl]-N-propylbenzamide [B1M028-01]
ASMS ratio (%) n = 1 [2]: 0.0% | ASMS ratio (%) n = 2 [2]: 0.0%

CCOc1cncc(-c2csc(C(=O)N3CCN(c4ccc(C(=O)NCC56CC7CC(CC(C7)C5)C6)cc4)CC3)c2)c1 [B1A024-01, N-(1-Adamantylmethyl)-4-[4-[4-(5-ethoxypyridin-3-yl)thiophene-2-carbonyl]piperazin-1-yl]benzamide]
ASMS ratio (%) n = 1 [2]: 4.1% | ASMS ratio (%) n = 2 [2]: 1.2%

CCOc1cncc(-c2ccc(C(=O)N3CCN(c4ccc(C(=O)NS(=O)(=O)c5ccc(NCCSc6ccccc6)c([N+](=O)[O-])c5)nn4)CC3)cc2C)c1 [B2Q004-01, 6-[4-[4-(5-Ethoxypyridin-3-yl)-3-methylbenzoyl]piperazin-1-yl]-N-[3-nitro-4-(2-phenylsulfanylethylamino)phenyl]sulfonylpyridazine-3-carboxamide]
ASMS ratio (%) n = 1 (AS-MS, mixture library, Bcl-2): 10.7% | ASMS ratio (%) n = 2 (AS-MS, mixture library, Bcl-2): 8.7%

CCOc1cncc(-c2cc(C(=O)N3CCN(c4ccc(C(=O)NS(=O)(=O)CCC(F)(F)F)cc4)CC3)cc(C(C)(C)C)c2)c1 [B2N038-01, 4-[4-[3-tert-Butyl-5-(5-ethoxypyridin-3-yl)benzoyl]piperazin-1-yl]-N-(3,3,3-trifluoropropylsulfonyl)benzamide]
ASMS ratio (%) (n = 1): 0.0% | ASMS ratio (%) (n = 2): 0.0%

CCOc1cncc(-c2ccc(CN3CCN(c4ccc(C(=O)NS(=O)(=O)C(C)(C)C)cc4)CC3)c(CC)c2)c1 [B2L050-01]
ASMS ratio (%) (n = 1): 0.0% | ASMS ratio (%) (n = 2): 0.0%

CCOc1cncc(-c2ccc(CN3CCN(c4ccc(C(=O)NCC56CC7CC(CC(C7)C5)C6)cc4)CC3)c3ccccc23)c1 [B1A066-01, N-(1-Adamantylmethyl)-4-[4-[[4-(5-ethoxypyridin-3-yl)naphthalen-1-yl]methyl]piperazin-1-yl]benzamide]
ASMS ratio (%) n = 1 [2]: 8.2% | ASMS ratio (%) n = 2 [2]: 7.7%

CCOc1cccc(-c2ccc(C(=O)N3CCN(c4ccc(C(=O)NS(=O)(=O)CC56CC7CC(CC(C7)C5)C6)cc4)CC3)c3ccccc23)c1 [B2A035-01, N-(1-Adamantylmethylsulfonyl)-4-[4-[4-(3-ethoxyphenyl)naphthalene-1-carbonyl]piperazin-1-yl]benzamide]
ASMS ratio (%) n = 1 (AS-MS, mixture library, Bcl-2): 6.2% | ASMS ratio (%) n = 2 (AS-MS, mixture library, Bcl-2): −9.8%

CCOc1cncc(-c2ccc(C(C)N3CCN(c4ccc(C(=O)NS(=O)(=O)CC56CC7CC(CC(C7)C5)C6)cc4)CC3)cc2)c1 (stereo not shown) [B2A098-01, N-(1-Adamantylmethylsulfonyl)-4-[4-[1-[4-(5-ethoxypyridin-3-yl)phenyl]ethyl]piperazin-1-yl]benzamide]
ASMS ratio (%) n = 1 (AS-MS, mixture library, Bcl-2): 18.2% | ASMS ratio (%) n = 2 (AS-MS, mixture library, Bcl-2): 2.1%

CCOc1cncc(-c2ccc(C(=O)N3CCN(c4ccc(C(=O)NS(=O)(=O)CC56CC7CC(CC(C7)C5)C6)nn4)CC3)cc2C)c1 [B2A004-01, N-(1-Adamantylmethylsulfonyl)-6-[4-[4-(5-ethoxypyridin-3-yl)-3-methylbenzoyl]piperazin-1-yl]pyridazine-3-carboxamide]
ASMS ratio (%) n = 1 (AS-MS, mixture library, Bcl-2): 0.0% | ASMS ratio (%) n = 2 (AS-MS, mixture library, Bcl-2): 0.0%

CCOc1cccc(C#Cc2ccccc2CN2CCN(c3ccc(C(=O)NCC(F)(F)F)nn3)CC2)c1 [B1K095-01, 6-[4-[[2-[2-(3-Ethoxyphenyl)ethynyl]phenyl]methyl]piperazin-1-yl]-N-(2,2,2-trifluoroethyl)pyridazine-3-carboxamide]
ASMS ratio (%) n = 1 [2]: 3.5% | ASMS ratio (%) n = 2 [2]: −0.6%

CCOc1cccc(-c2cc(C(=O)N3CCN(c4ccc(C(=O)NS(=O)(=O)CCC(F)(F)F)cc4)CC3)cc(C(C)(C)C)c2)c1 [B2N037-01, 4-[4-[3-tert-Butyl-5-(3-ethoxyphenyl)benzoyl]piperazin-1-yl]-N-(3,3,3-trifluoropropylsulfonyl)benzamide]
ASMS ratio (%) (n = 1): 0.0% | ASMS ratio (%) (n = 2): 0.0%

CCOc1cncc(-c2ccc(C(=O)N3CCN(c4ccc(C(=O)NCC56CC7CC(CC(C7)C5)C6)nn4)CC3)cc2F)c1 [B1A006-01, N-(1-Adamantylmethyl)-6-[4-[4-(5-ethoxypyridin-3-yl)-3-fluorobenzoyl]piperazin-1-yl]pyridazine-3-carboxamide]
ASMS ratio (%) n = 1 [2]: 2.4% | ASMS ratio (%) n = 2 [2]: 9.1%

CCOc1cncc(C#Cc2cc(C(=O)N3CCN(c4ccc(C(=O)NS(=O)(=O)C(C)(C)C)nn4)CC3)cc(C(F)(F)F)c2)c1 [B2L020-01, N-tert-Butylsulfonyl-6-[4-[3-[2-(5-ethoxypyridin-3-yl)ethynyl]-5-(trifluoromethyl)benzoyl]piperazin-1-yl]pyridazine-3-carboxamide]
ASMS ratio (%) (n = 1): 0.0% | ASMS ratio (%) (n = 2): 0.0%

CCOc1cccc(-c2ccc(C(=O)N3CCN(c4ccc(C(=O)N(CC)CC)cc4)CC3)cc2C)c1 [B4J025-01, 4-[4-[4-(3-Ethoxyphenyl)-3-methylbenzoyl]piperazin-1-yl]-N,N-diethylbenzamide]
ASMS ratio (%) n = 1 [1]: 3.6% | ASMS ratio (%) n = 2 [1]: −0.3%

CCOc1cncc(-c2cnn(-c3cc(C(=O)N4CCN(c5ccc(C(=O)Nc6ccc(OC)cc6)nn5)CC4)cc(C(F)(F)F)c3)c2)c1 [B1O022-01, 6-[4-[3-[4-(5-Ethoxypyridin-3-yl)pyrazol-1-yl]-5-(trifluoromethyl)benzoyl]piperazin-1-yl]-N-(4-methoxyphenyl)pyridazine-3-carboxamide]
ASMS ratio (%) n = 1 [1]: 5.6% | ASMS ratio (%) n = 2 [1]: −1.2%

CCOc1cncc(-c2ccc(CN3CCN(c4ccc(C(=O)N(CC)CC)nn4)CC3)c3ccccc23)c1 [B4J092-01, 6-[4-[[4-(5-Ethoxypyridin-3-yl)naphthalen-1-yl]methyl]piperazin-1-yl]-N,N-diethylpyridazine-3-carboxamide]
ASMS ratio (%) n = 1 (AS-MS, mixture library, Bcl-2): −1.4% | ASMS ratio (%) n = 2 (AS-MS, mixture library, Bcl-2): 0.3%
